# Experiments:
# CB1R [1] = test system: CB1R; parameters: method as in Laprairie et al., 2019; conditions: ref Laprairie et al., 2019; cited from earlier work
# C57BL/6J mice [2] = experiment: Tetrad: catalepsy, ring holding assay; type: in vivo, mouse; conditions: for catalepsy: single agent i.p. (CP55940 0.1 mg/kg; indomethacin 2 mg/kg), 1 and 4 h
# Protocol: (§1) Seven-week old, male, C57BL/6J mice (mean weight 25.2 ± 0.5 g) were purchased from The Jackson Laboratory (Bar Harbor, ME, United States). Animals were group housed (5 per cage) with ad libitum access to food, water, and environmental enrichment and maintained on a 12 h light/dark cycle. […] All protocols were in accordance with the guidelines detailed by the Canadian Council on Animal Care (CCAC; Ottawa ON: Vol. 1, 2nd Ed., 1993; Vol. 2, 1984), approved by the Carleton Animal Care Committee at Dalhousie University. In keeping with the ARRIVE guidelines, power analyses were conducted to determine the minimum number of animals required for the study and animals were purchased – rather than bred – to limit animal waste, and all assessments of animal behavior were made by individuals blinded to treatment group ([Kilkenny et al., 2010]).
# Catalepsy was assessed in the ring holding assay immediately prior to injection and 1 and 4 h following injection. The mice were placed such that their forepaws clasped a 5 mm ring positioned 5 cm above the surface of the testing space. The length of time the ring was held was recorded (s). The trial was ended if the mouse turned its head or body, or made three consecutive escape attempts.
# C57BL/6J mice [3] = experiment: Tetrad: internal body temperature; type: in vivo, mouse; conditions: 0.5 and 1 h; for body temperature compared to vehicle: single agent i.p. (CP55940 0.1 mg/kg; indomethacin 2 mg/kg)
# Protocol: as §1
# Internal body temperature was measured via rectal thermometer immediately prior to injection and 0.5, 1, and 4 h following injection.
# C57BL/6J mice [4] = experiment: Tetrad: locomotion, open field test; type: in vivo, mouse
# Protocol: as §1
# Locomotion was assessed in the open field test immediately prior to injection and 1 and 4 h following injection. Mice were placed in an open space 90 cm × 60 cm and total distance was recorded for 5 min.
# C57BL/6J mice [5] = experiment: Tetrad: tail flick latency (anti-nociception); type: in vivo, mouse; conditions: for tail flick latency compared to vehicle: single agent i.p. (CP55940 0.1 mg/kg; indomethacin 2 mg/kg), 0.5, 1 and 4 h
# Protocol: as §1
# Anti-nociception was determined by assessing tail flick latency immediately prior to injection and 0.5, 1, and 4 h following injection. Mice were restrained with their tails placed ∼1 cm into water held at 52°C and the time until the tail was removed was recorded as tail flick latency (s). Observations were ended at 10 s.
# hCB1R [6] = target: T1, hCB1R (Homo sapiens, UniProt P21554); experiment: [35S]GTPγS binding assay, CHO cell membranes; type: biochemical; conditions: 1 μM indomethacin in the presence of 1 nM and 10 μM AEA
# Protocol: (§2) Human CB1R and CB2R CHO cell membranes (25 μg protein) were preincubated for 30 min at 30°C with adenosine deaminase (0.5 IU/ml). […] Binding was initiated by the addition of [^35S]GTPγS. Non-specific binding was measured in the presence of 30 μM GTPγS. The reaction was terminated by rapid vacuum filtration (50 mM Tris–HCl; 50 mM Tris–Base; 0.1% BSA) using a 24-well sampling manifold (cell harvester; Brandel, Gaithersburg, MD, United States) and GF/B filters (Whatman, Maidstone, United Kingdom) that had been soaked in buffer (50 mM Tris–HCl; 50 mM Tris–Base; 0.1% BSA) for at least 24 h. Each reaction tube was washed six times with a 1.2-mL aliquot of ice-cold wash buffer. The filters were oven-dried for at least 60 min and then placed in 3 mL of scintillation fluid (Ultima Gold XR, PerkinElmer, Cambridge, United Kingdom). Radioactivity was quantified by liquid scintillation spectrometry.
# hCB2R [7] = target: T2, hCB2R (Homo sapiens, UniProt P34972); experiment: PLCβ3 phosphorylation, in-cell western, HEK293A hCB2R-GFP2; type: cell-based; parameters: expressed in transfected cells; host or cells: HEK293A cells; HEK-CRE reporter cells for the cAMP luciferase assay; conditions: indomethacin alone
# Protocol: (§3) Cells were fixed for 10 min at room temperature with 4% paraformaldehyde and washed three times with 0.1 M PBS for 5 min each. Cells were incubated with blocking solution (PBS, 20% Odyssey blocking buffer, and 0.1% TritonX-100) for 1 h at room temperature. […] Cells were washed three times with PBS for 5 min each. Cells were incubated in IR^CW700dye or IR^CW800dye (1:500; Rockland Immunochemicals) and washed three times with PBS for 5 min each. Analyses were conducted using the Odyssey Imaging system and software (version 3.0; Li-Cor).
# hCB1R [8] = target: T1, hCB1R; experiment: [3H]CP55940 radioligand binding, CHO cell membranes; conditions: 0.7 nM [3H]CP55940; indomethacin between 10 nM and 10 μM, bell-shaped, greatest at 10 and 100 nM
# Protocol: Binding was initiated by the addition of transfected human CB1R or CB2R CHO cell membranes (50 μg protein per well). All assays were performed at 37°C for 60 min before termination by the addition of ice-cold Tris binding buffer, followed by vacuum filtration using a 24-well sampling manifold (Brandel Cell Harvester; Brandel Inc., Gaithersburg, MD, United States) and Brandel GF/B filters that had been soaked in wash buffer at 4°C for at least 24 h. Each reaction well was washed six times with a 1.2 mL aliquot of Tris binding buffer. The filters were oven-dried for 60 min and then placed in 3 ml of scintillation fluid (Ultima Gold XR, PerkinElmer, Seer Green, Buckinghamshire, United Kingdom). Radioactivity was quantified by liquid scintillation spectrometry.
# hCB2R [9] = target: T2, hCB2R; experiment: βarrestin1 recruitment, BRET2, HEK293A hCB2R-GFP2; type: cell-based; parameters: expressed in transfected cells; host or cells: HEK293A cells, transient (Lipofectamine 2000); conditions: indomethacin alone
# Protocol: (§4) Briefly, 48 h post-transfection cells were washed twice with cold PBS and suspended in BRET buffer [PBS supplemented with glucose (1 mg/mL), benzamidine (10 mg/mL), leupeptin (5 mg/mL), and a trypsin inhibitor (5 mg/mL)]. Cells were treated with compounds as indicated (PerkinElmer) and coelenterazine 400a substrate (50 μM; Biotium, Hayward, CA, United States) was added.
# ICR mice = test system: ICR mice; parameters: method as in Wiley et al. (2006); conditions: indomethacin 10 or 30 mg/kg, AEA 30 mg/kg, ref Wiley et al. (2006); cited from earlier work
# hCB2R [10] = target: T2, hCB2R; experiment: cAMP luciferase reporter assay, HEK-CRE hCB2R-GFP2; type: cell-based; parameters: expressed in transfected cells; HEK-CRE reporter cells for the cAMP luciferase assay; conditions: indomethacin alone
# Protocol: (§5) HEK-CRE cells were transfected with CB1R-GFP^2 or CB2R-GFP^2. Forty-eight hours post-transfection cells were washed twice with cold PBS and suspended in BRET buffer. Cells were dispensed into 96-well plates (10,000 cells/well) and treated with 10 μM forskolin and ligands (PerkinElmer). Media was aspirated from cells and cells were lysed with passive lysis buffer for 20 min at room temperature (Promega, Oakville, ON, Canada).
# hCB1R [11] = target: T1, hCB1R; type: cell-based; conditions: indomethacin alone
# Protocol: as §4
# hCB1R [12] = target: T1, hCB1R; type: cell-based; conditions: indomethacin alone; remark: listed apart in the source
# Protocol: as §5
# hCB2R [13] = target: T2, hCB2R; experiment: ERK1/2 phosphorylation, in-cell western, HEK293A hCB2R-GFP2; type: cell-based; parameters: expressed in transfected cells; host or cells: HEK293A cells; HEK-CRE reporter cells for the cAMP luciferase assay; conditions: indomethacin alone
# Protocol: as §3
# hCB1R [14] = target: T1, hCB1R; type: cell-based; conditions: indomethacin alone; remark: listed apart in the source
# Protocol: as §3
# hCB2R [15] = target: T2, hCB2R; experiment: [35S]GTPγS binding assay, CHO cell membranes; type: biochemical; parameters: expressed in transfected cells; HEK-CRE reporter cells for the cAMP luciferase assay; conditions: data not shown
# Protocol: as §2
# [16] = parameters: method as in Remmel et al., 2004; conditions: ref Remmel et al., 2004; cited from earlier work
# hCB1R [17] = experiment: Bias analysis by operational model, ΔΔLogR (cAMP–βarrestin2), CHO cells; type: cell-based, human; conditions: reference agonist CP55940
# Protocol: Concentration-response curves (CRC) were fit using non-linear regression with variable slope (four parameters) and used to calculate EC50, Emin, and Emax (GraphPad, Prism, v. 8.0). […] Statistical analyses were conducted by Student’s one
# hCB1R [18] = target: T1, hCB1R; type: binding
# Protocol: The assay was terminated by rapid filtration onto GF/B filters pre-soaked in assay buffer using a Brandel cell harvester. The filters were washed six times with the ice-cold buffer before being dried in a heated cabinet. Filters were placed in vials to which 3 mL Ultima Gold scintillation fluid was added. The radioactivity in each vial was then counted for 3 min in a Tri-Carb liquid scintillation counter.
# CB1R [19] = test system: CB1R; parameters: method as in Pamplona et al., 2012; conditions: PAM of ligand binding and cAMP inhibition at CB1R; ref Pamplona et al., 2012; cited from earlier work
# T1 sequence (P21554 whole entry): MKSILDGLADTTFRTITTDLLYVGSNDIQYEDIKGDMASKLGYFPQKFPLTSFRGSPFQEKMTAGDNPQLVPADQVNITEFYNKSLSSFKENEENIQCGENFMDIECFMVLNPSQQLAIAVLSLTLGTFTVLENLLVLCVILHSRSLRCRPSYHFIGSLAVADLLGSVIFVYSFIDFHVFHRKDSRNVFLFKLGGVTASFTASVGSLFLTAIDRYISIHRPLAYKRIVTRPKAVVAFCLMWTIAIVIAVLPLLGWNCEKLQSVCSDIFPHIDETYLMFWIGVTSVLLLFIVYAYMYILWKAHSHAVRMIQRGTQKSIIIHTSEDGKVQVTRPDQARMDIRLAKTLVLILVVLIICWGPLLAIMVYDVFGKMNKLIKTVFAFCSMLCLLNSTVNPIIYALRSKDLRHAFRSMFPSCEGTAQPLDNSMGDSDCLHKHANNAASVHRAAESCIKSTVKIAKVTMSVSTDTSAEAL
# T2 sequence (P34972 whole entry): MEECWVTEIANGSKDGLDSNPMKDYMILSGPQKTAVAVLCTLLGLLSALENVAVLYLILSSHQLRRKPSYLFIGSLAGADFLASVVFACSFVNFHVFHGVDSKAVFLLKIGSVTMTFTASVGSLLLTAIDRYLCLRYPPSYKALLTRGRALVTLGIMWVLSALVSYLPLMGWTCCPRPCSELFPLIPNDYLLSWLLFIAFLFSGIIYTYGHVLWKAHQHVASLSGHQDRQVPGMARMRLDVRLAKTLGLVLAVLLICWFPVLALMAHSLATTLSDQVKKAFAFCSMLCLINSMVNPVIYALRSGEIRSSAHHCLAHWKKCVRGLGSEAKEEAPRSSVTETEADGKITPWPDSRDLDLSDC
compound,measurement,setting,value
"C=C(C)[C@@H]1CCC(C)=C[C@H]1c1c(O)cc(CCCCC)cc1O [CBD, cannabidiol]",concentrations that reduce CP55940 binding,CB1R [1],> 1 µM
"CCCCCCC(C)(C)c1ccc([C@@H]2C[C@H](O)CC[C@H]2CCCO)c(O)c1 [CP55940, (-)-cis-3-[2-Hydroxy-4-(1,1-dimethylheptyl)phenyl]-trans-4-(3-hydroxypropyl)cyclohexanol]",catalepsy,C57BL/6J mice [2],increased
same,body temperature compared to vehicle,C57BL/6J mice [3],reduced
same,locomotion (distance traveled in the open field) compared to vehicle,"C57BL/6J mice [4]; CP55940 0.1 mg/kg i.p., 1 and 4 h",reduced
same,tail flick latency compared to vehicle,C57BL/6J mice [5],increased
"COc1ccc2c(c1)c(CC(=O)O)c(C)n2C(=O)c1ccc(Cl)cc1 [Indomethacin, indomethacin]",[35S]GTPγS binding to hCB1R,hCB1R [6],enhanced
same,catalepsy time compared to CP55940 alone,"C57BL/6J mice [2]; 2 and 4 mg/kg indomethacin with CP55940 0.1 mg/kg i.p., 1 h",significantly increased
same,catalepsy,C57BL/6J mice [2],not
same,hCB2R-dependent PLCβ3 phosphorylation,hCB2R [7],did not alter
same,[3H]CP55940 binding to hCB1R,hCB1R [8],enhanced
same,body temperature compared to CP55940 or indomethacin alone,C57BL/6J mice [3]; CP55940 0.1 mg/kg + indomethacin 4 mg/kg i.p.,further reduced
same,body temperature compared to vehicle,C57BL/6J mice [3],reduced
same,hCB2R-dependent βarrestin1 recruitment,hCB2R [9],did not alter
same,"AEA-dependent hypolocomotion, anti-nociception, hypothermia, and immobility",ICR mice,enhanced
same,locomotion compared to CP55940 or indomethacin alone,"C57BL/6J mice [4]; CP55940 0.1 mg/kg + indomethacin 4 mg/kg i.p., 4 h",further reduced
same,hCB2R-dependent cAMP inhibition,hCB2R [10],did not alter
same,hCB1R-dependent βarrestin1 recruitment,hCB1R [11],did not alter
same,tail flick latency compared to CP55940 or indomethacin alone,"C57BL/6J mice [5]; CP55940 0.1 mg/kg + indomethacin 4 mg/kg i.p., 1 h",increased
same,tail flick latency compared to vehicle,C57BL/6J mice [5],increased
same,hCB1R-dependent cAMP levels,hCB1R [12],did not alter
same,hCB2R-dependent ERK1/2 phosphorylation,hCB2R [13],did not alter
same,hCB1R-dependent ERK1/2 phosphorylation,hCB1R [14],did not alter
same,hCB1R-dependent PLCβ3 phosphorylation,hCB1R [14],did not alter
same,[35S]GTPγS binding to hCB2R,hCB2R [15],did not effect
same,t1/2 in mouse,[16],51 min
same,bias between cAMP inhibition and βarrestin2 recruitment (ΔΔLogR),hCB1R [17]; indomethacin in the presence of AEA,selectively enhance inhibition of cAMP
same,bias between cAMP inhibition and βarrestin2 recruitment (ΔΔLogR),hCB1R [17]; indomethacin in the presence of CP55940,did not display bias
same,rate of dissociation of [3H]CP55940 compared to vehicle,hCB1R [18]; 1 μM indomethacin,did not change
same,t1/2 (min) (95% CI) of [3H]CP55940 dissociation,"hCB1R [18]; +1 μM indomethacin, 24°C, dissociation started with 1 μM unlabeled CP55940",4.67 (3.17–8.80) min
"CCCCC[C@H](O)/C=C/C=C\C=C\C=C\[C@@H](O)[C@@H](O)CCCC(=O)O [Lipoxin A4, lipoxin A4]",potency in vitro,CB1R [19],high micromolar

# Reference: publication PMC6813218 (Frontiers in Molecular Neuroscience, 2019)
